These results are taken from US9096875B2 (Montana State University, priority 2010, dated 2015).

Experiment [1] deals with Scenedesmus WC-1. As to conditions: for total Nile Red fluorescence reached: began to increase at 5 d; for Dry Weight (DCW) / Final Cell Density / Final Total Nile Red Fluorescence / Final Specific Nile Red Intensity Cell-1: WC-1, 5% CO2 → Air; for Dry Weight (DCW) / Final Cell Density / Final Total Nile Red Fluorescence: n = 3; for Final Specific Nile Red Intensity Cell-1: fluorescence signal/cell density × 10,000. As for the experimental part:
Cultures were grown with 5% CO2 until nitrate depletion was imminent.
(§1) Scenedesmus sp. strain WC-1 (WC-1) was isolated and confirmed unialgal as previously described (Gardner et al. 2010). WC-1 was cultured on Bold's basal medium with pH adjusted to 8.7 with KOH previous to autoclaving (Nichols and Bold 1965). Phaeodactylum tricornutum strain Pt-1 (CCMP 2561) (Pt-1) was acquired from The Provasoli-Guillard National Center for Culture of Marine Phytoplankton (CCMP). Pt-1 was cultured on ASP II medium and 50 mM Tris buffer (Sigma-Aldrich, St. Louis Mo.), pKa 7.8 (Provasoli et al. 1957). Both organisms were checked for bacterial contamination by inoculation into respective medium supplemented with 0.05% yeast extract and 0.05% glucose and incubated in the dark. Experiments were conducted in triplicate in batch culture using 70 mm×500 mm glass tubes containing 1 L media submersed in a water bath to control temperature. Rubber stoppers, containing ports for aeration and sampling, were used to seal the tubes. Temperature was maintained at 24° C. and 20° C., ±1° C., for WC-1 and Pt-1, respectively. Light (400 μmoles m^−2s^−1) was maintained on a 14:10 light:dark cycle by a T5 light bank. Aeration (400 mL min^−1) was supplied by humidified compressed air with and without 5% CO2 (v/v) and controlled using individual rotameters on each bioreactor (Cole-Parmer, Vernon Hills Ill.).
(§2) Cell concentrations were determined using an optical hemacytometer with a minimum of 400 cells counted for statistical reliability. Light micrographs and Nile Red fluorescence images were taken using a transmitted/epifluorescence light microscope (Nikon Eclipse E800) with an Infinity 2 color camera.
Medium pH was measured on samples using a standard bench top pH meter. Nitrate in Bolds basal medium was measured by ion chromatography (IC) using an IonPac AS9-HC Anion-Exchange Column (Dionex) with a 9.0 mM sodium carbonate buffer set at a flow rate of 1.0 mL min^−1. Detection was performed using a CD20 conductivity detector (Dionex) at 21° C., and IC data was analyzed on Dionex PeakNet 5.2 software. Nitrate in ASP II medium was measured using a colorimetric assay based on the reaction of Czechrome NAS reagent (Polysciences Inc., Warrington Pa.) with nitrate ions. In brief, 1 mL of culture was centrifuged at 16,000 g for 15 minutes. The supernatant liquid was then collected for nitrate quantification. 0.1 mL of sample was gently mixed with 1 mL of reagent solution prepared as described by the manufacturer (Polysciences Inc., Warrington Pa.), and incubated 20 minutes at room temperature. The absorbance was read at 570 nm, and nitrate concentration of the sample was calculated using a nitrate standard curve.
(§3) Cellular TAG accumulation was estimated using the Nile Red (9-diethylamino-5H-benzo(α)phenoxazine-5-one) (Sigma-Aldrich, St. Louis Mo.) fluorescence method (Cooksey et al. 1987). TAG accumulation over time was measured by removing 1 mL aliquots from cultures and assayed directly with Nile Red (4 μL from […] in acetone) or by diluting with 4 mL ultrapure H2O or salt water for WC-1 and Pt-1, respectively, before assaying directly with Nile Red (20 μL from […] in acetone). To maintain linearity of the Nile Red assay, dilution was required when population counts exceeded 1×10^7 cell mL^−1 and 3×10^6 cell mL^−1 for WC-1 and Pt-1, respectively. Total Nile Red fluorescence was quantified on a microplate reader (Bio-Tek, Winooski, Vt.) utilizing 480/580 nm excitation/emission filters.

In experiment [2] the test system is Coelastrella sp. PC-3. As for the experimental part:
The addition of 50 mM NaHCO3 prior to nitrate depletion was tested on Coelastrella sp. PC-3.

Experiment [3] deals with Chlorophyta sp. EN-2. As to conditions: 50 mM NaHCO3 prior to nitrate depletion. As for the experimental part: The addition of 50 mM NaHCO3 prior to nitrate depletion was tested on Chlorophyta sp. EN-2.
Experiment [4] deals with Phaeodactylum tricornutum Pt-1. As for the experimental part:
The diatom was cultured in ASP II medium, with or without adding NaHCO3 under 14:10 L:D cycle at […] A non-limiting example of ASP II medium is shown below:
as §1, §2
as §3, with “filters. […] To minimize fluorescence spillover, black walled 96-well plates were loaded with 200 μL of sample. Unstained samples were used for background medium and cellular autofluorescence correction. […]” for “filters.”

In experiment [5] the test system is Kirchneriella sp. 92. As to conditions: 50 mM NaHCO3 prior to nitrate depletion. As for the experimental part:
(§4) The addition of 50 mM NaHCO3 prior to nitrate depletion was tested on Chlorophytes Scenedesmus sp.

The test system of experiment [6] is Scenedesmus sp. 131. The conditions noted are these: 50 mM NaHCO3 prior to nitrate depletion. How it is done: as §4
In experiment [7] the test system is diatom RGd-1. The conditions noted are these: bicarbonate spike at 7.4 d, within 2-3 d of the spike, ambient air, 14:10 light-dark. An excerpt: RGd-1 was obtained from Yellowstone National Park under Permit No. YELL-2009-SCI-5480. These cultures were illuminated with 14:10 light-dark cycling with ambient air aeration.
Setting [8] is: HCO3 addition at 3.7 d (pre-nitrate depletion), harvest 8.0 d.
[9] abbreviates: HCO3 addition at 6.4 d (post-nitrate depletion), harvest 12.0 d.

Several values for one entry are separate records, joined by “and”; a condition that tells them apart may be missing. Equal entries are not always repeated. Where two headings read alike, the source gives them in different places.

As to `O=C([O-])[O-].[Na+].[Na+]` [Na2CO3, sodium carbonate, reference compound], the TAG accumulation entry in experiment [1] (all cases of Na2CO3 addition (individual, mix, buffered), near nitrate depletion) is listed as “did not accumulate elevated levels of TAG”.
For `O=C([O-])O.[Na+]` [bicarbonate, sodium bicarbonate], in experiment [2], the “TAG accumulation measured with Nile Red fluorescence” value is recorded as “no observable increase in TAG accumulation” and the “effect on cellular replication” value is listed as “cellular replication ceased”. Moreover, in experiment [3], the TAG accumulation rate entry was “observable increase” and the “TAG per cell level (Nile Red specific fluorescence)” value is “observable increase”. Moreover, in experiment [4], the “Dry Weight (DCW)” value amounted to 0.1 ± 0.0 g/L; the “Final Cell Density” value is 0.65 ± 0.01 ×10^7 cells mL^−1 and 1.02 ± 0.05 ×10^7 cells mL^−1; the “effect on cell replication” value is on record as “cell replication was not inhibited”; the “lipid production (Nile Red fluorescence)” value was “stimulated more lipid production”. In experiment [5], the TAG accumulation rate result was “decrease in TAG accumulation rate”. Also, the TAG accumulation rate result in experiment [6] is “increase in TAG accumulation rate”. Besides, the TAG induction entry in experiment [1] (25 mM NaHCO3 with 25 mM CAPS buffer (pKa 10.3), near nitrate depletion) was “almost identical to the unbuffered additions”. Further, the “period of TAG accumulation” value in experiment [1] (50 mM bicarbonate added at 3.7 d (pre-nitrate depletion)) lay within 5 to 8 days. In addition, in experiment [1] (50 mM bicarbonate added at 6.4 d, post-nitrate depletion), the “Nile Red fluorescence after decrease to baseline” value is 450 units. The “Nile Red fluorescence / TAG accumulation response” value in experiment [1] (50 mM bicarbonate added post-nitrate depletion (stationary phase), aeration adjusted to ambient air, listed as NaHCO3) is “complete loss of cellular TAG accumulation”. The TAG accumulation result in experiment [1] (25 and 50 mM added to unbuffered medium near nitrate depletion (FIG. 15)) is “induce similar levels of TAG”. Moreover, in experiment [1] (Example 4: 50 mM bicarbonate spike at 3.7 d, value 4 days later), the “total Nile Red fluorescence reached” value was 20,000 units. Also, the “total Nile Red fluorescence reached” value in experiment [1] (Example 5: 50 mM bicarbonate addition at 3.7 d, value 3 days later) is recorded as 33,500 units. In addition, in experiment [1] (setting [8]), the “Dry Weight (DCW)” value is given as 1.1 ± 0.1 g/L, the “Final Cell Density” value is 1.34 ± 0.15 ×10^7 cells mL^−1, the “Final Total Nile Red Fluorescence” value is given as 33.5 ± 6.3 ×10^3 units and the “Final Specific Nile Red Intensity Cell-1” value is 24.8 ± 2.2. Also, in experiment [1] (setting [9]), the “Dry Weight (DCW)” value is on record as 2.1 ± 0.0 g/L, the “Final Cell Density” value was 5.18 ± 0.41 ×10^7 cells mL^−1, the “Final Total Nile Red Fluorescence” value is given as 0.3 ± 0.3 ×10^3 units and the “Final Specific Nile Red Intensity Cell-1” value came to 0.1 ± 0.1. The “minimal concentration range needed to stop cellular replication” value in experiment [1] (addition just prior to medium nitrate depletion) was 10 to 15 mM. The “culture time at which maximum total Nile Red fluorescence was reached” value in experiment [1] (bicarbonate supplemented culture, instead of 16-18 d in ambient aerated culture) was determined as 8 days. Moreover, the “cell morphology by microscope” value in experiment [1] (less than 10 mM NaHCO3 addition) is given as “did not indicate cell cycle halting characteristics”. In experiment [1] (when bicarbonate was added (50 mM, near nitrate depletion), versus ambient aerated culture), the “rate of TAG accumulation” value is reported as “twice as fast”. Moreover, in experiment [1] (with bicarbonate spike, compared with 8-10 d under ambient air aeration with no spike), the “time to reach maximum Nile Red fluorescence signal” value was in the range of 3 to 4 days. Also, the “total Nile Red fluorescence increase over the no spike control” value in experiment [7] is given as 10 fold.
